The subject of one experiment is 4UbFL in ES2 cells. Nature of the experiment: 4UbFL reporter assay, ES2. Format: cell-based, human. To be noted: 4 h; for 4UbFL stabilization, fold over DMSO: ES2, 1.25 μM; for 4UbFL bioluminescence, luminometer: ES2 stably expressing 4UbFL. The protocol:
Sub-confluent cultures of cells were transfected with 4UbFL plasmid using TransIT 2020 reagent (Mirus Bio). Cells were seeded at 10,000 cells/well in 96-well plates 48 h post transfection, and incubated with compounds or vehicle (DMSO) at the doses and for the times indicated. Luciferase activity in cell lysate was determined with a luciferase assay kit (Promega) according to the manufacturer’s instructions. Bioluminescence was measured using a Glomax Multidetection system (Promega).
(§1) Fig 3 Impact of RA475 on proteasome function. […] Actin was used as loading control. […] C) 4T1 and HCC1806 cells stably expressing 4UbFL were treated with compounds at indicated doses for 4 h and imaged by IVIS200 after the addition of luciferin substrate (50 μL, 7mg/mL in PBS). D) Sub-confluent cultures of ES2 cells stably expressing 4UbFL were seeded at 10,000 cells/well in 96-well microtiter plates. At 18 h post transfection, cells were treated with compounds or vehicle (DMSO) at the doses indicated. After a 4 h incubation, the cells were lysed and the luciferase activity in each cell lysate was determined with a luciferase assay kit (Promega) according to the manufacturer’s instructions. Bioluminescence was measured by using a luminometer (Glomax Multidetection system, Promega) E) A patch was shaved of hair on one leg of CD-1 mice, and 10 μg 4UbFL plasmid in 20 μL of PBS was injected into the quadriceps femoralis muscle followed immediately by injection of the 2 Needle Array to 5 mm depth encompassing the injection site and square wave electroporation (ElectroSquarePorator 833, BTX-2 Needle array 5mm gap, Harvard apparatus) delivered as eight pulses at 106V for 20 ms with 200 ms intervals. One day post electroporation, mice were anesthetized with isoflurane, injected IP with luciferin (0.3 mg in 100 μL water) and optical imaging was performed to determine basal level luciferase expression. Images were acquired for 10 min with a Xenogen IVIS 200 (Caliper, Hopkinton, MA). Equally sized areas were analyzed using Living Image 2.20 software. Mice were imaged weekly during treatment. Mice were randomized into three groups (n = 5) and treated IP once with Vehicle (25% (w/v) β-Hydroxypropylcyclodextrin in water, Sigma Aldrich) alone, RA475 (40 mg/Kg) or Up284 (40 mg/Kg) and mice were imaged again at 4 h, 24 h, 48 h, 72 h and 96 h later. F) Same as in E but RA475 (40mg/Kg) and ixazomib (10mg/Kg, recommended dose) were delivered orally. Thick line indicates median measurements. P-values are results based on Wilcoxon rank sum test for pairwise comparisons to vehicle cohort at each time point with multiplicity adjustment.
Firefly Luciferase (FL) is a stable protein in cells, but when fused with four molecules of ubiquitin (4Ub) it is targeted for rapid degradation by proteasomes. […]

The next experiment concerns MCF7. Nature of the experiment: MTT cytotoxicity assay, MCF7. Format: cell-based. To be noted: Homo sapiens, MCF7, 72 h. The protocol: (§2) All cell lines were obtained from the American Type Culture Collection (ATCC) and cultured in the specified medium supplemented with 10% fetal bovine serum, 100 IU/mL penicillin, and 100 μg/mL streptomycin at 37°C in a humidified 5% CO2/95% air incubator. Synthesis of new compounds is described in S1 File, and >95% purity of RA475, Up284 and its analogs were confirmed by NMR and MS. To assess drug cytotoxicity, cells were seeded at 2,500 cells/well (10,000 cells/well for MM lines) in 100 μL medium in 96-well plate as triplicates and after 24 h treated with compounds for a further 72 h. To assess cytotoxicity, the cells were incubated for 2 h at 37°C according to the manufacturer’s protocol with the Thiazolyl Blue Tetrazolium Bromide (20 μL/well of 5 mg/mL stock solution in water) (Sigma, M5655) and A570 measured using a Benchmark Plus microplate spectrophotometer (BIO-RAD). IC50 was estimated using Graphpad Prism 7 software.
In general terms: Formazan colour is commonly taken as a measure of viable cells.

In the next experiment the test system is HT29. The experiment in a line: MTT cytotoxicity assay, HT29. In kind it is cell-based. The settings on record: Homo sapiens, HT-29, HT29, 72 h. The method, then:
as §2

In another experiment the test system is TC1. Nature of the experiment: MTT cytotoxicity assay, TC1. In kind it is cell-based. To be noted: TC-1, TC1, 72 h. The method, then:
as §2

For experiment [1], the system named is 4UbFL expressed in leg muscle. The experiment in a line: 4UbFL reporter in leg muscle of CD-1 mice. Format: in vivo, mouse. To be noted: for 4UbFL bioluminescence from leg muscle vs vehicle: single IP dose 40 mg/Kg, 4-96 h. The method, then: A patch of CD1 mouse leg was shaved of hair and 10 μg 4Ub-FL plasmid in 20 μL of PBS was injected into the quadriceps femoralis muscle followed immediately by injection of the 2 Needle Array to 5 mm depth encompassing the injection site and square wave EP (ElectroSquarePorator 833, BTX-2 Needle array 5mm gap, Harvard apparatus) delivered as eight pulses at 106 V for 20 ms with 200 ms intervals. One day post-EP, mice were anesthetized with isoflurane, injected IP with luciferin (0.3 mg in 100 μL water) and optical imaging was performed to determine basal level luciferase expression. Images were acquired for 10 min with a Xenogen IVIS 200 (Caliper, Hopkinton, MA). Equally sized areas were analyzed using Living Image 2.20 software.
as §1, with “P-values are results based on Wilcoxon rank sum test for pairwise comparisons to vehicle cohort at each time point with multiplicity adjustment.” left out

“Also recorded” adds a separate entry of the source.

With `Cl.Cl.N#Cc1ccc(/C=C2/C(=O)/C(=C/c3ccc(C#N)cc3)C23CCN(C(=N)N)CC3)cc1` [RA475, 1,3-bis((E)-4-cyanobenzylidene)-2-oxo-7-azaspiro[3.5]nonane-7-carboximidamide dihydrochloride], the “4UbFL stabilization, fold over DMSO” value in the experiment on 4UbFL in ES2 cells is listed as more than 20 fold. In the experiment with 4UbFL in ES2 cells, the “4UbFL bioluminescence, luminometer” value was “dose-dependent increase in bioluminescence”. Moreover, the IC50 in the experiment with MCF7 was found to be 742 nM; with HT29, 401 nM; in the experiment with TC1 it was 217 nM. The “4UbFL stabilization, fold over baseline” value in experiment [1] (40 mg/Kg IP) was more than 20 fold. Further, the “4UbFL bioluminescence from leg muscle vs vehicle” value in experiment [1] is “rapidly increased the bioluminescence”. Also, in experiment [1] (single oral (PO) 40 mg/Kg dose, 40 mg/kg), the “stabilization of 4UbFL in muscle” value was “much lower than seen for the single IV dose; also recorded: minimal stabilization”.

As for `N#Cc1ccc(/C=C2/C(=O)/C(=C/c3ccc(C#N)cc3)C23CCNCC3)cc1` [Up284, reference compound], the “4UbFL stabilization, fold over DMSO” value with 4UbFL in ES2 cells was more than 20 fold. For the same compound, in the experiment with 4UbFL in ES2 cells, the “4UbFL bioluminescence, luminometer” value is on record as “dose-dependent increase in bioluminescence”. Also, the results for the half-maximal inhibitory concentration (IC50) in the experiment with MCF7, in the experiment with HT29 and with TC1 were 690 nM, 43 nM and 140 nM, respectively. Further, in experiment [1], the “4UbFL bioluminescence from leg muscle vs vehicle” value is “much weaker effect”.

Usually IC50 stands for the concentration at which inhibition is half-maximal. A higher IC50 goes with weaker potency.
